Laboratory results published in patent publication EP4108244A1, “SS-LACTAM ANTIBIOTIC WITH SIGNIFICANT ACTIVITY AGAINST CANCER E.G. COLON MALIGNANCIES” (priority 2021, dated 2022).
“And” between values parts separate entries of the source, which are not always exact repeats. Equal entries are not always repeated. Marks after values point to notes of the source that are not given here.

Assays:
DLD-1 cells [1] = test: MTT metabolic activity assay; type: cell-based, human
Experimental: MTT assay was used to assess the proliferation rate of HCT-116 and DLD-1 cells. In this assay the ability of metabolically active cells to convert tetrazolium salt into a blue formazan product is measured. The absorption of the dissolved formazan was quantified at 540 nm by an ELISA reader (Bio-Rad iMark Microplate Reader).
Cells were plated at 2^∗104cells/ml in 96-well plates and incubated overnight. […] Metabolic activity of the cells was studied using the MTT assay that measures the ability of metabolically active cells to convert tetrazolium salt into a blue formazan product, the absorbance of which is recorded at 540 nm by an ELISA reader (Bio-Rad iMark Microplate Reader).

Caco-2 cells = test: MTT metabolic activity assay; type: cell-based, human; conditions: 24 h post-treatment, 5-Fluorouracil 4µM
Experimental: Cells were plated at 2^∗104cells/ml in 96-well plates and incubated overnight. The following day, cells were treated in triplicate with Ceftazdime or 5-fluorouracil for 24-48 h, depending on the cell line used. Metabolic activity of the cells was studied using the MTT assay that measures the ability of metabolically active cells to convert tetrazolium salt into a blue formazan product, the absorbance of which is recorded at 540 nm by an ELISA reader (Bio-Rad iMark Microplate Reader).

HCT-116 cells [2] = test: Cell cycle distribution, propidium iodide staining; type: cell-based, human; conditions: CFT 100 µg/mL, CFP 50 µg/mL, 5-FU 8 µM, alone or combined, mean ± SE
Experimental: Propidium iodide (PI) staining was used to evaluate the effect of the different treatments on the cell cycle. […] Fixed cells, which were washed with PBS and incubated at 37 °C for 1 h with 50 µl RNase (1 mg/ml) (Sigma Aldrich, Germany), were stained for 15 minutes with PI (Molecular Probes, Eugene, Oregon, USA).

DLD-1 cells [3] = test: Cell cycle distribution, propidium iodide staining; type: cell-based, human; conditions: for accumulation of dead cells in the pre-G1 phase vs. control: CFT alone
Experimental: Propidium iodide (PI) staining was used to evaluate the effect of the different treatments on the cell cycle. […] 48 h and 72 h post-treatment, collected cells were fixed with ice-cold ethanol (70%) and stored at - 20 °C for at least 2 h. Fixed cells, which were washed with PBS and incubated at 37 °C for 1 h with 50 µl RNase (1 mg/ml) (Sigma Aldrich, Germany), were stained for 15 minutes with PI (Molecular Probes, Eugene, Oregon, USA). Cell cycle was monitored using BD FACSDiva™ and the percentage of cells in the different phases of the cell cycle (pre-Gi, G0/G1, S, and G2/M) phases was determined using BD FACSDiva™ Software.
Propidium iodide (PI) staining was used to evaluate the effect of the different treatments (Ceftazidime (100 µg/ml) or 5-Fluorouracil (16 µM)) on the cell cycle profile of DLD-1 cells. Briefly, DLD-1 cells were plated at 5^∗104/ml and treated for 48 h and 72 h. Collected cells were fixed with ice-cold ethanol (70%) and stored at -20°C for at least 2 h. Fixed cells, which were washed with PBS and incubated at 37°C for 1 h with 50 µl RNase (1 mg/ml) (Sigma Aldrich, Germany), were stained for 15 minutes with PI (Molecular Probes, Eugene, Oregon, USA). Cell cycle was monitored using BD FACSDiva™ and the percentage of cells in the different phases of the cell cycle (pre-Gi, G0/G1, S, and G2/M) phases was determined using BD FACSDiva™ Software.

DLD-1 cells [4] = test: Caspase-3/7 activity assay; type: cell-based, human; conditions: CFT 100 µg/ml alone, vs. control untreated cells
Experimental: (§1) Caspase-3/7 activity was measured 48 h and 72 h post-treatment according to the manufacturer's protocol (Caspase-Glo-3/7 Assay, Promega Corp, Madison, WI, USA). Briefly, equal volume from treated cells and caspase-3/7 mixture were incubated at room temperature for 3 h and the luminescence was measured by a microplate reader.
as §1, with “DLD-1 cells were treated with CFT (100 µg/ml) or 5-Fluorouracil (16 µM). Caspase-3/7” for “Caspase-3/7”, “caspase 3/7” for “caspase-3/7”

HCT-116 cells [5] = test: Caspase-3/7 activity assay; type: cell-based, human; conditions: combined with 5-FU 8 µM, 48 and 72h, CFT 100 µg/ml, CFP 50 µg/ml
Experimental: as §1

DLD-1 cells [6] = test: Antibiotics' uptake by the cells, LC-MS/MS; conditions: for Concentration of CFT, Lysate / Concentration of CFT, Supernatant: CFT 100 µg/ml alone or + 5-FU 16 µM
Experimental: (§2) This step was repeated three times and cell homogenate were vortexed at high-speed prior extraction. 40 µl from each supernatant and cell suspension were combined with 200 µl of internal standard working solution prepared in ice-cold methanol. Samples were then centrifuged and 100 µl of the supernatant were diluted with 400 µl water in glass vials prior analysis with LC-/MS/MS.

HCT-116 cells [7] = test: Antibiotics' uptake by the cells, LC-MS/MS; conditions: for Concentration of CFT, Lysate / Concentration of CFT, Supernatant: CFT 100 µg/ml alone or + 5-FU 8 µM
Experimental: as §2

[8] = Stability in media, LC-MS/MS; type: physicochemical; conditions: antibiotic alone (CFP 50 µg/mL, CFT 100 µg/mL)
Experimental: B) CFT (100 µg/ml) ± 5-FU (8 µM and 16 µM). P value (a) (between antibiotic alone and 5-FU (8 µM)); P value (b) (between antibiotic alone and 5-FU (16 µM)), n = 3.

[9] = 48 h, CFT 100 µg/mL, CFP 50 µg/mL, 5-FU 16 µM, alone or combined, mean ± SE
[10] = 72 h, CFT 100 µg/mL, CFP 50 µg/mL, 5-FU 16 µM, alone or combined, mean ± SE

CC(C)(O/N=C(\C(=O)N[C@@H]1C(=O)N2C(C(=O)[O-])=C(C[n+]3ccccc3)CS[C@H]12)c1csc(N)n1)C(=O)O [CFT, (6R,7R)-7-[[(2Z)-2-(2-amino-1,3-thiazol-4-yl)-2-(2-carboxypropan-2-yloxyimino)acetyl]amino]-8-oxo-3-(pyridin-1-ium-1-ylmethyl)-5-thia-1-azabicyclo[4.2.0]oct-2-ene-2-carboxylate]
inhibitory effect vs. control untreated cells (metabolic activity) (DLD-1 cells [1]; 48 h post-treatment, 5-Fluorouracil 16µM): 18%
metabolic activity (in words) (DLD-1 cells [1]; CFT alone (100 µg/ml), 72 h post-treatment): significant decrease in the metabolic activity
inhibition of proliferation (metabolic activity) (Caco-2 cells): 30%
percentage of cells in G2/M (HCT-116 cells [2]; 48 h): 24.4 ± 1.2%
percentage of cells in Pre G1 (HCT-116 cells [2]; 48 h): 6.4 ± 2.3^(a) %
percentage of cells in S (HCT-116 cells [2]; 48 h): 12.8 ± 2.9%
percentage of cells in G0/G1 (HCT-116 cells [2]; 72 h): 56.9 ± 1.3^(a) %
percentage of cells in G2/M (HCT-116 cells [2]; 72 h): 24.3 ± 0.5^(a) %
percentage of cells in Pre G1 (HCT-116 cells [2]; 72 h): 9.8% and 9.8 ± 0.9^(a) %
percentage of cells in S (HCT-116 cells [2]; 72 h): 6.6 ± 1.0%
percentage of cells in G0/G1 (DLD-1 cells [3]; [9]): 52.6 ± 3.3%
percentage of cells in Pre G1 (DLD-1 cells [3]; [9]): 9.3 ± 2.5^(a) %
percentage of cells in S (DLD-1 cells [3]; [9]): 14.6 ± 3.2%
accumulation of dead cells in the pre-G1 phase vs. control (DLD-1 cells [3]; 48 h): 1.9 fold
percentage of cells in G0/G1 (DLD-1 cells [3]; [10]): 38.2 ± 4.3^(a) %
percentage of cells in G2/M (DLD-1 cells [3]; [10]): 12.0 ± 1.6^(a) %
percentage of cells in Pre G1 (DLD-1 cells [3]; [10]): 40.6 ± 5.2^(a) %
percentage of cells in S (DLD-1 cells [3]; [10]): 8.4 ± 0.6%
accumulation of dead cells in the pre-G1 phase vs. control (DLD-1 cells [3]; 72h): 9.4 fold
increase of the activity of caspase 3/7 (DLD-1 cells [4]; 48 h): 20%
increase of the activity of caspase 3/7 (DLD-1 cells [4]; 72 h): 32.1%
effect on 5-FU-induced apoptosis (caspase 3/7, in words) (HCT-116 cells [5]): antagonized 5-FU-induced apoptosis
Concentration of CFT, Lysate (DLD-1 cells [6]; 2 h): 0.024 ± 0.003
Concentration of CFT, Supernatant (DLD-1 cells [6]; 2 h): 100.000 ± 2.970
Concentration of CFT, Lysate (DLD-1 cells [6]; 4 h): 0.026 ± 0.002
Concentration of CFT, Supernatant (DLD-1 cells [6]; 4 h): 97.073 ± 5.728
Concentration of CFT, Lysate (DLD-1 cells [6]; 6 h): 0.033 ± 0.003
Concentration of CFT, Supernatant (DLD-1 cells [6]; 6 h): 91.335 ± 7.637
Concentration of CFT, Lysate (DLD-1 cells [6]; 8 h): 0.032 ± 0.001
Concentration of CFT, Supernatant (DLD-1 cells [6]; 8 h): 98.126 ± 5.940
average uptake by the cells (DLD-1 cells [6]; up to 8h): around 0.02%
uptake of CFT (DLD-1 cells [6]; up to 8 h, CFT 100 µg/ml): 0.019-0.025%
Concentration of CFT, Lysate (HCT-116 cells [7]; HCT-116 cells, 2 h): 0.047 ± 0.003
Concentration of CFT, Supernatant (HCT-116 cells [7]; HCT-116 cells, 2 h): 96.900 ± 3.818
Concentration of CFT, Lysate (HCT-116 cells [7]; HCT-116 cells, 4 h): 0.066 ± 0.012
Concentration of CFT, Supernatant (HCT-116 cells [7]; HCT-116 cells, 4 h): 105.000 ± 4.168
Concentration of CFT, Lysate (HCT-116 cells [7]; HCT-116 cells, 6 h): 0.056 ± 0.001
Concentration of CFT, Supernatant (HCT-116 cells [7]; HCT-116 cells, 6 h): 96.750 ± 8.697
Concentration of CFT, Lysate (HCT-116 cells [7]; HCT-116 cells, 8 h): 0.053 ± 0.010
Concentration of CFT, Supernatant (HCT-116 cells [7]; HCT-116 cells, 8 h): 88.900 ± 8.326
uptake of CFT (HCT-116 cells [7]; HCT-116 cells, up to 8 h, CFT 100 µg/ml): 0.047-0.066%
average uptake in HCT-116 cells compared to DLD-1 cells (HCT-116 cells [7]; up to 8h): 2 folds
uptake in HCT-116 cells compared to DLD-1 cells (HCT-116 cells [7]; up to 8 h, CFT 100 µg/ml): ~2.5 fold
Stability test, level in media ([8]; 2h in media): 104.4 ± 2.5
Stability test, level in media ([8]; 8h in media): 103.4 ± 10.8
